Legend:
[1] = Pharmacokinetic evaluation in plasma; assay type: in vivo, C57BL/6 mice; settings: single i.p. dose 500 mg/kg; for CL_F Clearance / absorption half-life / half-life / AUC / Cmax / Tmax: C57BL/6 mice, plasma; for absorption half-life / half-life / AUC / Cmax / Tmax: female, ip; for absorption half-life / half-life: C57BL/6, mouse, 500 mg/kg; for absorption half-life: read-out: K01 absorption half life (converted); for half-life: read-out: K10 elimination half life (converted); for AUC / Cmax / Tmax: mouse
Method: Pharmacokinetic Evaluation of Ψ-GSH. Eight weeks old C57BL/6 female mice (n=4 animals/time point) were given 500 mg/kg of GSH or Ψ-GSH in saline intraperitoneally. Blood samples were collected at […], 1, 2, 4, 8, 24 hr after the drug administration through retro-orbital bleeding into heparin-coated tubes. Blood was immediately centrifuged at 5000×g for 10 min at 4° C. The top plasma layer was transferred into a new tube and mixed with an equal volume of 5% sulfosalicylic acid in […] potassium phosphate buffer containing 1 mM EDTA disodium salt (pH 7.2). This was followed by centrifugation of samples at 8000×g for 10 min at 4° C. and analysis of thiol concentration. The derivatization reaction was realized utilizing 130 μL of the supernatant, 500 μL of Tris-HCl buffer 0.5 M, pH 8.9 and 350 μL of DTNB 10 mM in of K2HPO4 (0.5 M, pH 8.0). After 5 min in an ice bath, the reaction mixture was acidified by addition of 100 μL H3PO4 7 M and centrifuged at 3000×g for 10 min. Then, derivatized GSH or Ψ-GSH was filtered through a 0.22 μm membrane and 20 μL was injected in HPLC at 330 nm. HPLC analysis was carried out on a Beckman Coulter Gold HPLC system, controlled by a system controller (32 Karat workstation with PC). The HPLC conditions employed a Varian Microsorb column (C18, 5 μm, 4.6×250 mm) using solvent A [water containing 0.9% v/v formic acid] and solvent B [acetonitrile] with 1 mL/min flow rate and detected at 330 nm. Solvent B was increased from 0 to 30% in 9 min, then to 80% in 7 min, and held at 80% for an additional 4 min. The retention time for derivatized Ψ-GSH was 11.8 minutes.

SH-SY-5Y cells = experiment: H2O2 and MG-induced cellular oxidative stress (DCFH-DA); assay type: cell-based, human; settings: for intracellular ROS after H2O2 exposure: H2O2 500 μM, co-incubation with 250 μM compound; for ROS generated by MG treatment: MG 1 mM, 180 min, 250 μM compound
Method: H2O2 and MG-Induced Cellular Oxidative Stress. SH-SY-5Y cells were cultured in 96-well black plates at the density of 10,000 cells/well and were allowed to reach confluence (˜48 h). The cells were then treated with a solution of 2,7-dichlorofluorescin diacetate (DCFH-DA, 20 μM) in RPMI 1640 medium without FBS for 45 min. Extracellular DCFH-DA was removed by washing twice with PBS. To induce oxidative stress, the cells were treated with hydrogen peroxide (500 μM) or methylglyoxal (1 mM) in RPMI media without FBS in presence and absence of GSH or Ψ-GSH (250 μM) for 90 min or 180 min at 37° C. in the dark. The cells were washed with PBS and then lysed by adding 250 μl of 90% DMSO/10% PBS for 10 min in the dark at room temperature with shaking. The fluorescence intensity in each well was measured in the fluorescence plate reader (BioTek SynergyHT, VT, USA) at an excitation of 485 nm and an emission of 538 nm and normalized to the protein content in each well as determined by the BCA assay. (Wang et al., Free Radic. Res. 2008, 42, 435-441)

APP/PS1 mice = experiment: Amyloid-β1-42 ELISA of brain homogenate; assay type: in vivo
Method: Efficacy Study Design. To determine the effect of intraperitoneal and oral Ψ-GSH treatment, the study was divided in four groups (10 mice/group). 1. APP/PS1 mice-vehicle control, 2. APP/PS1 mice-Ψ-GSH i.p. 500 mg/kg, 3. APP/PS1 mice-Ψ-GSH oral 500 mg/kg, 4. Non-transgenic wild type mice-vehicle control. All the animals in the above-said groups were treated with saline or Ψ-GSH three times a week for 12 weeks, starting at the age of three to four months. Eleven weeks after the start of the treatment, the animals were tested in the Morris water maze, and twelve weeks after the start of the treatment, the animals were sacrificed for histopathological analysis.
Amyloid-β1-42 ELISA. Total Aβ^1-42 in the brain was quantified by sandwich ELISA (Invitrogen, Carlsbad, Calif.) according to the manufacturer's instructions. Wild type and transgenic Alzheimer's mice brains were Dounce homogenized in phosphate buffered saline (PBS), pH 7.2, containing a mixture of protease inhibitors. Brain homogenates were centrifuged and supernatants were assayed for soluble Aβ^1-42 per manufacturers' protocols. […] The concentration of both PBS soluble and insoluble (guanidine soluble) Aβ^1-42 was calculated from a standard curve of human Aβ^1-42 and was normalized to the weight of the tissue employed.

Swiss Webster Mice = experiment: ACP (acetaminophen) overdose rescue and effects on normal liver; assay type: in vivo
Method: 36-Male Swiss Webster Mice (HSD) were fasted over-night and then brought to the lab at 8:00 am the following day and weighed. Food was kept out of the cages until after the final drug injection. Mice were divided into treatment groups as below in Table 2.
Thirty minutes post overdose with 370 mg/kg ACP, the following were evaluated for the groups in Table 2:
N-acetylcysteine (NAC) at 7.35 mmol/kg;
Ψ-GSH at three different doses, 3.67, 2.45 and 1.22 mmol/kg; and
examine effects of Ψ-GSH on normal liver at rescue doses.

| Compound | CL_F Clearance [1] | absorption half-life [1] | half-life [1] | AUC [1] | Cmax [1] | Tmax [1] | intracellular ROS after H2O2 exposure (SH-SY-5Y cells) | ROS generated by MG treatment (SH-SY-5Y cells) | AUC relative to GSH [1] | Cmax relative to GSH [1] | Tmax relative to GSH [1] | insoluble Aβ1-42 in brain (APP/PS1 mice; i.p.) | insoluble Aβ1-42 concentration in brain (APP/PS1 mice; oral) | liver histopathology after ACP overdose (Swiss Webster Mice; 370 mg/kg ACP + rescue agent) | ALT levels after ACP overdose (Swiss Webster Mice; 370 mg/kg ACP, rescue 30 min later at half molar equivalent of NAC) | tolerability when given alone (Swiss Webster Mice; mouse, in vivo) |
| --- | --- | --- | --- | --- | --- | --- | --- | --- | --- | --- | --- | --- | --- | --- | --- | --- |
| N[C@@H](CCC(=O)N[C@@H](CS)C(=O)NCC(=O)O)C(=O)O [GSH, Glutathione] | 165.9 mL/min/kg | 7.62 min | 29.7 min | 50.2 µg·h/mL | 43.9 µg/mL | 20.2 min | reduction in ROS to the levels in control cells | neutralized effectively | – | – | – | – | – | – | – | – |
| N[C@@H](CNC(=O)N[C@@H](CS)C(=O)NCC(=O)O)C(=O)O [Ψ-GSH, γ-Gla-Cys-Gly-OH] | 31.15 mL/min/kg | 10.3 min | 73.6 min | 267 µg·h/mL | 110 µg/mL | 34 min | reduction in ROS to the levels in control cells | neutralized effectively | 5.3 fold | 2.5 fold | 3 fold | 45.4±6.01 % of vehicle-treated APP/PS1 mice | 90.80±6.72 % of vehicle treated APP/PS1 mice | absence of necrotic tissue | decrease in ALT levels comparable to that caused by NAC | safe and well tolerated |
